# BindingDB's records for doi:10.1039/c9md00489k (University of Porto, 2020)
# *1 amine or outer side, *2 acyl side, *3 side chain or, on linkers, in order; H or OH if unused. Where a SMILES comes first, the peptide text is derived from it. The star is where a group is joined. X1 = O=c1nc(N*)ccn1[C@@H]1O[C@H](CO)[C@@H](O)C1(F)F; Suc = O=C(CCC(=O)[*:2])[*:1]
# Assay: Substrate activity at ENT1 in human BXPC-3 cells assessed as inhibition of cell growth pretreated with ENT1 inhibitor nitrobenzylthioinosine for 5 mins measured after 72 hrs by SRB assay
row,IC50,Molecule
1,> 1 µM,CSCC[C@H](NC(=O)[C@H](NC(=O)[C@@H]1CCCN1C(=O)[C@H](CC(C)C)NC(=O)[C@H](CCCCN)NC(=O)[C@@H](N)Cc1c[nH]c2ccccc12)C(C)C)C(N)=O
2,0.381 µM,CC(C)C[C@H](NC(=O)[C@@H](NC(=O)[C@@H]1CCCN1C(=O)[C@@H](NC(=O)[C@H](Cc1c[nH]c2ccccc12)NC(=O)CCC(=O)Nc1ccn([C@@H]2O[C@H](CO)[C@@H](O)C2(F)F)c(=O)n1)C(C)C)[C@@H](C)O)C(=O)N[C@@H](CCCCN)C(N)=O ({X1-Suc}-WVPTLK-NH2)
3,> 1 µM,H-KLPVMW-NH2
4,> 1 µM,H-WVPTLK-NH2

row,Molecule,IC50
1,CSCC[C@H](NC(=O)[C@@H](NC(=O)[C@@H]1CCCN1C(=O)[C@H](CC(C)C)NC(=O)[C@H](CCCCN)NC(=O)CCC(=O)Nc1ccn([C@@H]2O[C@H](CO)[C@@H](O)C2(F)F)c(=O)n1)C(C)C)C(=O)N[C@@H](Cc1c[nH]c2ccccc12)C(N)=O ({X1-Suc}-KLPVMW-NH2),0.384 µM
2,CSCC[C@H](NC(=O)[C@@H](NC(=O)[C@@H]1CCCN1C(=O)[C@H](CC(C)C)NC(=O)[C@H](CCCCN)NC(=O)[C@H](Cc1c[nH]c2ccccc12)NC(=O)CCC(=O)Nc1ccn([C@@H]2O[C@H](CO)[C@@H](O)C2(F)F)c(=O)n1)C(C)C)C(N)=O ({X1-Suc}-WKLPVM-NH2),0.38 µM
